In series [1] the target is T1, LBP-2/LDL binding (Homo sapiens, UniProt P04114).
T1 construct: LDL was prepared from the plasma of normolipemic donors; 6-histidine tag (N); made in house; host or cells: E. coli DH10B, pPROEX-HT (LBP-2); LDL from human donor plasma
Put plainly: ACE assay of LBP-2/LDL binding in the presence of inhibitors. On the set-up: species or system rabbit. Conditions: LDL 148 nM in gel; polyglutamic acid 0-0.4 nM. Here is the method:
(§1) This example illustrates that binding between LBP-1 or LBP-2 and LDL is inhibited by polyglutamic acid or BHF-1. The ability of a third compound to inhibit binding between two proteins previously shown to interact was tested by a modification of the ACE assays described in Example 8. The third compound was added to the top or wells together with the radiolabeled protein.
(§2) Inhibition of LBP-1/LDL or LBP-2/LDL binding by polyglutamic acid (average MW about 7500, corresponding to about […]) was shown by casting a constant amount of LDL (148 nM) in all the rectangular lanes. A constant amount (1 μl) of ^125I-labeled LBP-1 or LBP-2 (0.003 nM-0.016 nM) was loaded in the wells at the top of the gel, together with increasing concentrations of polyglutamic acid (obtained from Sigma) (0-0.4 nM). The gel was electrophoresed at 70 volts for 2 hr, dried and placed on X-ray film, with intensifying screens, overnight at −70° C. before the film was developed to determine the retardation profile of LBP-1 and LBP-2.

For series [2], the target named is T2, LBP-1/LDL binding (Homo sapiens, UniProt P04114).
T2 construct: the sizes of the recombinant proteins were determined to be 16.2 kDa for LBP-1; LDL was prepared from the plasma of normolipemic donors; 6-histidine tag (N); made in house; host or cells: E. coli DH10B, pPROEX-HT (LBP-1); LDL from human donor plasma
T2 sequence (P04114 28-4563): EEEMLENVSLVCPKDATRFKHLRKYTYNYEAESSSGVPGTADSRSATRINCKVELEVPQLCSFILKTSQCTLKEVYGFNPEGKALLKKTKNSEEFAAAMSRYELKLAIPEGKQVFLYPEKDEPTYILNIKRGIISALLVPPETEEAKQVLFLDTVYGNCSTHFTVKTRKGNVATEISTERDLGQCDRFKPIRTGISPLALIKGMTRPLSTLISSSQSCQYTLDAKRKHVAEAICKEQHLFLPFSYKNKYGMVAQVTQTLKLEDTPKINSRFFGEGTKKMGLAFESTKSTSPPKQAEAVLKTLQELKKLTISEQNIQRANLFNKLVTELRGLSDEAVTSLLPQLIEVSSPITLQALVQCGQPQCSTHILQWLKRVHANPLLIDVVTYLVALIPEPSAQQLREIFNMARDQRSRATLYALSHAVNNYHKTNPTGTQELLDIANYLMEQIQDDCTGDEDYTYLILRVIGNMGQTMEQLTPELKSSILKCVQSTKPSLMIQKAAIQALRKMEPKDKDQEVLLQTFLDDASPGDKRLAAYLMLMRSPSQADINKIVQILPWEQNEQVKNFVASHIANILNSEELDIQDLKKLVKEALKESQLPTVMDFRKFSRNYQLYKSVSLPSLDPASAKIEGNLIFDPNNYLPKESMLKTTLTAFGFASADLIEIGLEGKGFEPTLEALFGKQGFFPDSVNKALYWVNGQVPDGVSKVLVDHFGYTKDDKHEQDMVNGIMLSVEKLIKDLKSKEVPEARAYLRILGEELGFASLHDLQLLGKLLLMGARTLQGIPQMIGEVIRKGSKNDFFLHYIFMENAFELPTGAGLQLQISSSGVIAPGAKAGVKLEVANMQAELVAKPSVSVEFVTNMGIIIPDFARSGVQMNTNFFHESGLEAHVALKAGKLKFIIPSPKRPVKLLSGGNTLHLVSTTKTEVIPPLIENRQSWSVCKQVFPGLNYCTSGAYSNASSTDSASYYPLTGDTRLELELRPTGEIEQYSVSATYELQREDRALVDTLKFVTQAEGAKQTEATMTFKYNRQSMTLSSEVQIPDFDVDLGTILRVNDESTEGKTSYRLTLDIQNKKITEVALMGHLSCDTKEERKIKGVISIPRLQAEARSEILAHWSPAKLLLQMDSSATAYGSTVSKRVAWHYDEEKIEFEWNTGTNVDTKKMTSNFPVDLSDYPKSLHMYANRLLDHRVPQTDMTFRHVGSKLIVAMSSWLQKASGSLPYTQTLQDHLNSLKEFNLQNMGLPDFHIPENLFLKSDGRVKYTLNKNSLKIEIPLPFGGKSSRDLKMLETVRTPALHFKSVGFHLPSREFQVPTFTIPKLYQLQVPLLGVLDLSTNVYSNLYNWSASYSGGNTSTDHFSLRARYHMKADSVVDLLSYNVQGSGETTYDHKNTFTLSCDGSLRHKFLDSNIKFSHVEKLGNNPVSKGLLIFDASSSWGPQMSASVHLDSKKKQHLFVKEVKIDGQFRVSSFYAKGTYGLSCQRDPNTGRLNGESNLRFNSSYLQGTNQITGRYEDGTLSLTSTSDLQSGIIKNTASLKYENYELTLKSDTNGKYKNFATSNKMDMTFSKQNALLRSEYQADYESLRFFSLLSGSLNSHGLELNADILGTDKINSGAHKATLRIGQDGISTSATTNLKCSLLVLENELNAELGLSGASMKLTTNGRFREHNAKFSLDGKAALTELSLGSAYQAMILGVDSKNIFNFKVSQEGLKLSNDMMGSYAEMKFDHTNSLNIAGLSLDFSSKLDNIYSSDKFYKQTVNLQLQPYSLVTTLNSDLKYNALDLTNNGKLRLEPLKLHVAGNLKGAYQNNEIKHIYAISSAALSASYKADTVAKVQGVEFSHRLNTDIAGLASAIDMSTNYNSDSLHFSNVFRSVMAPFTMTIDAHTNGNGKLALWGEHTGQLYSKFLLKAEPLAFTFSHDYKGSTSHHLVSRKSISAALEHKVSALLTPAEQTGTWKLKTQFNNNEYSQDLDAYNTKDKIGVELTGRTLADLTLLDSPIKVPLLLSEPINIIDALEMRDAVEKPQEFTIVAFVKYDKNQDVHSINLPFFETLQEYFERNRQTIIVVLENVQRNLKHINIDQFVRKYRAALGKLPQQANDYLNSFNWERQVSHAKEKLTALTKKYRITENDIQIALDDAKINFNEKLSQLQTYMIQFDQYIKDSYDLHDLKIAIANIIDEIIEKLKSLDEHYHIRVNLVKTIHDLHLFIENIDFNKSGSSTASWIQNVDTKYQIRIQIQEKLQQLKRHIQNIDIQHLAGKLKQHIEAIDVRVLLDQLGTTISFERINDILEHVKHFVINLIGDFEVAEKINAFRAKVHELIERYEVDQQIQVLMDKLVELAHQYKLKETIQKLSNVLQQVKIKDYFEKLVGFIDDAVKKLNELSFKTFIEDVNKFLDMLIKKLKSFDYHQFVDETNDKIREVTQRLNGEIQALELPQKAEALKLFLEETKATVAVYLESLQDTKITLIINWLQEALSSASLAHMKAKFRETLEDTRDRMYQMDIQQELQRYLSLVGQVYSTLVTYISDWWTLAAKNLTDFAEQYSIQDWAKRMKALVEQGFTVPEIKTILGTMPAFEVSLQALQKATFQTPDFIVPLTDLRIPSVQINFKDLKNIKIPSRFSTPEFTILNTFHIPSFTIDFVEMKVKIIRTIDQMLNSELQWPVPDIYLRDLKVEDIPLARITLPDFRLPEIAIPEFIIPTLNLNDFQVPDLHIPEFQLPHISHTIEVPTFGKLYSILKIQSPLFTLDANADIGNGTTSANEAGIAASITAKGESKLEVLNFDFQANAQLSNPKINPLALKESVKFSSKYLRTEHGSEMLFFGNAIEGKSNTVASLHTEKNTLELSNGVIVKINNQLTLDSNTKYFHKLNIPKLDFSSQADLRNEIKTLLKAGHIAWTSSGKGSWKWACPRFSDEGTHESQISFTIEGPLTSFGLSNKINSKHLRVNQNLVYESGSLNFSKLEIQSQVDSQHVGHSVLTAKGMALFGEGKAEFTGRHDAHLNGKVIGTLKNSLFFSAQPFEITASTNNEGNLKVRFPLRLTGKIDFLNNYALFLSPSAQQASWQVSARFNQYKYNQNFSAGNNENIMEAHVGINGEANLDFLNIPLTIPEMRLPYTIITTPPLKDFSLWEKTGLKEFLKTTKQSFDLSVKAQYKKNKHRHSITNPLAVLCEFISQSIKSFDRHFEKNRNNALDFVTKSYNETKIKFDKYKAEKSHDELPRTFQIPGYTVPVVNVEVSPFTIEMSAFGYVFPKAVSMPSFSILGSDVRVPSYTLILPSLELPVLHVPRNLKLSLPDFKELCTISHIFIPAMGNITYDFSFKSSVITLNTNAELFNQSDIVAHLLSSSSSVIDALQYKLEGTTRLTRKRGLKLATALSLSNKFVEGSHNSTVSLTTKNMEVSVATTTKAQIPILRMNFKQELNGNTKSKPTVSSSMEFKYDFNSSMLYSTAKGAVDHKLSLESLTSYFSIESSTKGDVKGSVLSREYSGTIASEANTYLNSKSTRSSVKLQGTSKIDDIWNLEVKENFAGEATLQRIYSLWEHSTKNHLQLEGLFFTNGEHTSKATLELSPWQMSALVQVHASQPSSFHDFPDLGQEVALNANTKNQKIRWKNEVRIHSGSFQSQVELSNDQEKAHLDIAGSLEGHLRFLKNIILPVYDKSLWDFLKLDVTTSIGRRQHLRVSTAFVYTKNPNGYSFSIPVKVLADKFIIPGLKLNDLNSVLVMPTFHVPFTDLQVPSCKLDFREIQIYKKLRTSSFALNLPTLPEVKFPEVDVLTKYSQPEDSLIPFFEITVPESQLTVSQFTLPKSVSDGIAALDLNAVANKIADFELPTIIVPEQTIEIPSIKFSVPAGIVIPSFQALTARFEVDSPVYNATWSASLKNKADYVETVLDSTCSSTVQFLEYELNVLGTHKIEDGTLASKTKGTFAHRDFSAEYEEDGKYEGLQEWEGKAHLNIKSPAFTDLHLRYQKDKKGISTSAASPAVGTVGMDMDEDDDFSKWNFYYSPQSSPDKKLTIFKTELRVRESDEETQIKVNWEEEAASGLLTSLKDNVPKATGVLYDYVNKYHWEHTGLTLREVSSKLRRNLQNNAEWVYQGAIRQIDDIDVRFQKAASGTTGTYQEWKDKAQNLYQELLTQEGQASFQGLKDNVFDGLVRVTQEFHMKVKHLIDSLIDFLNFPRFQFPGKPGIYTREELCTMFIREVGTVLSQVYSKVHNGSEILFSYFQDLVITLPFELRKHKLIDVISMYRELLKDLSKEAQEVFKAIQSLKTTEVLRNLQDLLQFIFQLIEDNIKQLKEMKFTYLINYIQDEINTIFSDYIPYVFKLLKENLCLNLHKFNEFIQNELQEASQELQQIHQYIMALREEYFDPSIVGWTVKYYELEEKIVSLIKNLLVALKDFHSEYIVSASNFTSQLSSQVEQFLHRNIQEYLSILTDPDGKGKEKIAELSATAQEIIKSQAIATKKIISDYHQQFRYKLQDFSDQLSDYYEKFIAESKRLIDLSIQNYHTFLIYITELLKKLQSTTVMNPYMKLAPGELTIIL
Briefly: ACE assay of LBP-1/LDL binding in the presence of inhibitors. The arrangement: species or system rabbit. The conditions noted are these: LDL 148 nM in gel; increasing inhibitor (polyglutamic acid 0-0.4 nM; BHF-1 0-10 nM). Here is the method: as §1, §2
Inhibition of LBP-1/LDL binding by BHF-1 was shown by casting a constant amount of LDL (148 nM) in all the rectangular lanes. A constant amount of ^125I-labeled LBP-1 (0.003 nM-0.016 nM) was loaded in the wells at the top of the gel, together with increasing concentrations of BHF-1 (0-10 nM), obtained as described in Example 15. […]

Series [3] concerns ballooned deendothelialized rabbit aorta. Briefly: Radiolabeled LDL accumulation in ballooned deendothelialized abdominal aorta after active immunization. It is filed as in vivo. Conditions: immunized with RIBI adjuvant; corrected for dosage and percent reendothelialization; 24 hr after 125I-LDL. The protocol: Immunity was induced in male New Zealand White rabbits (Hazelton Research Products, Denver, Pa.) as follows: A mixture of purified human recombinant LBP-2 or BHF-1 peptide (1 ml; 1 mg) and RIBI adjuvant (RIBI ImmunoChem Research, Inc., Hamilton, Mont.) was injected subcutaneously at 2-5 sites along the dorsal thoracic and abdominal regions of the rabbits. Blood was collected by venipuncture on days 1 (preimmune bleeding), 35, 63, and 91. Booster injections were administered on days 28 (500 μg; SC), 56 (250 μg; SC), and 84 (125 μg; SC).
On day 93, the abdominal aorta of immunized and control rabbits was deendothelialized using a Fogarty number 4 embolectomy catheter (Chang et al., Arteriosclerosis and Thrombosis 12:1088-1098 (1992)). Four weeks after ballooning, rabbits received a bolus injection of ^125I-labeled LDL (1 ml; i.v.). […] Blood samples were centrifuged for 30 min at 2000 rpm ([…]) and total activity present in the serum was determined using a Gamma counter. Total TCA precipitable counts were determined by addition of TCA to the serum to a final concentration of 10% followed by incubation for 10 min at 4° C. Serum samples were then centrifuged (2000 rpm; 30 min; […]) and total activity present in the supernate was determined. TCA precipitable counts were calculated by subtraction: total soluble counts minus counts present in the supernate after TCA precipitation. […]

Series [4] deals with T3, recombinant LBP-1 (Homo sapiens, UniProt P04114).
T3 construct: the sizes of the recombinant proteins were determined to be 16.2 kDa for LBP-1; 6-histidine tag (N); made in house; host or cells: E. coli DH10B, pPROEX-HT (LBP-1); LDL from human donor plasma
T3 sequence (P04114 28-4563): as above
Put plainly: ELISA plate assay, binding of LDL to recombinant LBP-1. The conditions noted are these: ELISA format. Here is the method:
(§3) In one example, the ELISA assay was carried out as follows: LDL was diluted in 50 mM Na2HCO3, pH 9.6/0.02% NaN3 and added to the wells of a 96-well plate (ImmunoWare 96-Well Reacti-Bind EIA Polystyrene Plates; Pierce (Rockford, Ill.)) to achieve a final concentration ranging from 0.1 to 1 μg/well. The plates were incubated for 6 hr at room temperature. At the end of the incubation period, the wells were washed 3 times with Tris-buffered saline, pH 7.4 (TBS), and blocked overnight with 200 μl of 1% bovine serum albumin (BSA) in TBS/0.02% NaN3 (Sigma; St. Louis Mo.) at room temperature. The wells were then incubated with 200 μl of LBP protein (5-10 μg/well) in TBS and varying concentrations of the test compound. Plates were incubated for 1 hr at room temperature. The wells were then washed three times with TBS and blocked for 2 hr with 200 μl of 1% BSA in TBS/0.02% NaN3 at room temperature. At the end of the incubation period, the wells were washed 3 times with TBS and a 1:1000 dilution (in TBS/0.05% Tween 20) of the appropriate guinea pig anti-LBP protein polyclonal antibody was added to the wells and incubated for 1 hr at room temperature. […] The absorbance was determined at 405 nm using an ELISA plate reader. The test compound's effectiveness in blocking the binding of LDL to the recombinant protein was assessed by comparing the absorbance values of control and treated groups. […]

Series [5] has as its system recombinant LBP-2. Put plainly: ELISA plate assay, binding of LDL to recombinant LBP-2. The conditions noted are these: ELISA format. Here is the method:
as §3

The nature of series [6]: Body weight and serum lipids of BHF-1-immunized LDLR knockout mice. It counts as in vivo, mouse. An excerpt: Four week old LDLR knockout mice were ear tagged, randomly assigned to different cages and weighed. Body weights were subsequently determined weekly. Animals were allowed to habituate for one week prior to experimentation. Normal rodent chow was provided ad libitum and animals were maintained in a 12:12 light:dark cycle. Animals were divided into experimental and control groups, as follows: (1) experimental, 16 mice were immunized with the BHF-1.20.L peptide; (2) control, 8 mice were immunized against bovine serum albumin.
Blood samples were analyzed for total cholesterol, HDL cholesterol, and triglyceride concentration, using commercially available total cholesterol and triglycerides assay kits (Sigma, St. Louis Mo.) (ELISA). HDL concentration was determined after Apo B containing lipoproteins were precipitated using heparin/MnCl2.
When fed a normal rodent chow, total serum cholesterol concentration in LDLR knockout mice remains relatively low. A high fat diet, on the other hand, results in an increase in total serum cholesterol concentration in these mice. The animals were thus switched at 16 weeks of age to a modified “Western Type” diet (0.1% cholesterol content) (Harland Teklad, Madison, Wis.) and fed ad libitum. This diet was expected to increase the total serum cholesterol concentration to a range of 600-800 mg/dl, thereby increasing the rate of lesion formation. […]

Series [7] has as its system LDL receptor (LDLR) knockout mice. Briefly: Aortic cholesterol content in BHF-1-immunized LDLR knockout mice. It is filed as in vivo, mouse. Conditions: 30 weeks of age, modified Western Type diet, P>0.037 as printed. The protocol:
An immunization experiment was performed with the BHF-1 peptide. LDL receptor (LDLR) knockout mice (B6,129S-Ldlr^tmlHer, Jackson Laboratories, Bar Harbor, Me.) were injected with the BHF-1 peptide (see Example 15 for methods of synthesizing the BHF-1 peptide) together with an RIBI adjuvant (RIBI ImmunoChem Research, Inc., Hamilton, Mont.). LDLR knockout mice are hyperlipidemic and thus a model for human atherosclerosis. LDLR knockout mice have high levels of plasma cholesterol and develop naturally-occurring atherosclerotic-like lesions.
Four week old LDLR knockout mice were ear tagged, randomly assigned to different cages and weighed. Body weights were subsequently determined weekly. Animals were allowed to habituate for one week prior to experimentation. […]
Mice in the experimental group received subcutaneous injections (9.99 μg/g body weight; 200 μl final volume) of the BHF-1.20.L peptide daily for 2 weeks, from 5 to 7 weeks of age, prior to the initial injection with the peptide and adjuvant. […] Titer was defined as the maximum dilution of serum that yielded a change in absorbance equivalent to 2× that of control serum (60 min; 37° C.). […]
At 30 weeks of age, the mice were sacrificed and aorta were removed as described in Example 22. Aortic atherosclerosis was measured by the cholesterol extraction method described in Example 22, whereby cholesterol is determined as a unit weight of artery.

Results on two substances are retold here after patent US7807384B2, “Low density lipoprotein binding proteins and their use in diagnosing and treating atherosclerosis” (Boston Heart Foundation, Inc., priority 1996, dated 2010).

T1 sequence (P04114 28-4563): as above

Consider polyglutamic acid [reference compound], for which the “Inhibition of binding between LBP-2 and LDL” value in series [1] is given as “inhibited binding”. Moreover, the “Inhibition of binding between LBP-1 and LDL” value in series [2] is recorded as “inhibited binding”.
In the case of “val-asp-val-asp-glu-tyr-asp-glu-asn-lys-phe-val-asp-glu-glu-asp-gly-gly-asp-gly (VDVDEYDENKFVDEEDGGDG; listed as Homo sapiens) [BHF-1]”, the “Accumulation of radiolabeled LDL in ballooned abdominal aorta versus nonimmune-ballooned rabbits” value in series [3] is recorded as “lower accumulation”. Further, the “Inhibition of binding between LBP-1 and LDL” value in series [2] is “inhibited binding”. The “Binding of LDL to recombinant LBP-1” value in series [4] is “reduce the binding”. In series [5], the “Binding of LDL to recombinant LBP-2” value is recorded as “reduce the binding”. In addition, the “Effect of immunization on body weight” value in series [6] was “no effect”. In addition, the “Less aortic cholesterol content as compared to control mice” value in series [7] was 24%.
